Earlier results in patent US20080248136A1, “ACUTE AND CHRONIC HEARTBURN COMPOSITION AND METHOD” (IOMEDIX DEVELOPMENT INTERNATIONAL SRL, priority 2006, published 2008).

Columns and labels:
[1] = in vivo
[2] = mice
[3] = test system: mitogen-activated protein kinase signaling; settings: signaling stimulated by H. Pylori

Structure (SMILES): O=C([O-])[O-].[Ca+2] [calcium carbonate]
- esophageal pH [1]: significantly increased
- gastric pH versus placebo [1]: remained at or below placebo levels

Structure (SMILES): C=C(C)[C@H]1CC=C(C)CC1 [limonene]
- participants achieving complete relief of symptoms (after 2 days of administration): 20%
- severity of gastric and esophageal reflux disorder symptoms, as evaluated by subjects (daily or every other day administration, after 14 days): near complete relief of the symptoms
- lasting alleviation of symptoms of gastric and esophageal reflux disorders (in certain cases): alleviated permanently
- antinociceptive activity [2]: has antinociceptive activity

Structure (SMILES): [Mg+2].[OH-].[OH-] [magnesium hydroxide]
- esophageal pH [1]: significantly increased
- gastric pH versus placebo [1]: increased gastric pH above placebo levels

Structure (SMILES): C=C(C)[C@@H]1CC=C(C(=O)O)CC1 [perillic acid]
- effect on mitogen-activated protein kinase signaling [3]: inhibits
